{"source": "patent US20190015379A1", "about": "“USE OF DIANHYDROGALACTITOL AND ANALOGS AND DERIVATIVES THEREOF, TOGETHER WITH RADIATION, TO TREAT NON-SMALL-CELL CARCINOMA OF THE LUNG AND GLIOBLASTOMA MULTIFORME AND SUPPRESS PROLIFERATION OF CANCER STEM CELLS” (DelMar Pharmaceuticals, Inc., priority 2014, published 2019)", "key": {"GBM": {"system": "GBM", "details": "GBM; Eagan (1979), Stupp (2005); cited from earlier work"}, "[1]": {"assay": "Tolerability in A549 tumor-bearing Rag2 mice (body weight, CBC, clinical observations)", "description": "(§1) Tumor growth was monitored by measuring tumor dimensions with calipers beginning on the first day of treatment. Tumor length and width measurements were obtained each Monday, Wednesday, and Friday. Tumor volumes were calculated according to the equation L×W^2/2 with the length (in mm) being defined as the longer axis of the tumor. Animals were weighed at the time of tumor measurement. Tumors were allowed to grow to a maximum of 800 mm^3 before termination.\nAll animals had blood collected by cardiac puncture at termination for CBC (complete blood count) with differentiation.\nIn particular, signs of ill-health were based on body weight loss, change in appetite, and behavioral signs such as altered gait, lethargy, and gross manifestations of stress. If signs of severe toxicity or tumor-related illness were seen, the animals were terminated by isoflurane overdose followed by CO2 asphyxiation, and a necropsy was performed to assess other signs of toxicity. The following organs were examined: liver, gall bladder, spleen, lung, kidney, heart, intestine, lymph nodes, and bladder. Any unusual findings were noted."}, "[2]": {"system": "A549 human lung adenocarcinoma xenograft tumors", "assay": "A549 NSCLC xenograft tumor growth in Rag2 mice", "type": "in vivo, female Rag2 mice", "description": "The purpose of the study reported in this Example is to evaluate the activity of dianhydrogalactitol in in vivo models of drug-resistant NSCLC in comparison to other drugs, including cisplatin. Rag2 mice bearing subcutaneous human lung adenocarcinoma xenograft tumors of either TKI-resistant (H1975) or TKI-sensitive (A549) origin were treated.\nTwo human NSCLC cell lines, A549 (TKI-sensitive) and H1975 (TKI-resistant), were used as xenograft tumor models in female Rag2 mice. The mice were 6 to 8 weeks of age and weighed 18-23 grams. 10 mice were used per group.\nCisplatin was used in normal saline at a dose of 5 mg/kg. Administration was intravenous.\nDianhydrogalactitol was used in 0.9% sodium chloride for injection at 1.5 mg/kg to 6 mg/kg. Administration was intraperitoneal.\nTreatment was initiated at a tumor volume of 100 mm^3 to 150 mm^3.\nOn day 0, tumor cells were implanted subcutaneously into mice in a volume of 50 μL in Matrigel™ using a 28-gauge needle; injection of the tumor cells was in the back of the mice. Mice were randomly assigned to groups based on tumor volume.\nas §1"}, "[3]": {"details": "Mischler et al. 1979; cited from earlier work"}, "[4]": {"details": "GBM chemotherapy, historical data; cited from earlier work"}, "[5]": {"details": "cisplatin 5 mg/kg Q7D x 3 i.v. (group 2)"}}}
{"smiles": "O=NN(CCCl)C(=O)NCCCl", "note": "[Carmustine, carmustine, reference compound]", "values": [{"measurement": "Median O.S. (XRT + Chemo)", "setting": "GBM", "value": "40-50 weeks"}]}
{"smiles": "N.N.[Cl][Pt][Cl]", "note": "[cisplatin, reference compound]", "values": [{"measurement": "body weight loss", "setting": "[1]; cisplatin 5 mg/kg (group 2)", "value": "body weight loss was observed"}, {"measurement": "tolerability of the dosage", "setting": "[1]; cisplatin 5 mg/kg, 1 mouse unable to receive the last dose", "value": "may also be near the MTD"}, {"measurement": "day on which a mean tumor volume of 400 mm^3 was reached", "setting": "[2]; [5]", "value": 66, "unit": "days"}, {"measurement": "number of animals remaining on study on day 70", "setting": "[2]; [5]", "value": "6/10"}, {"measurement": "tumor doubling time", "setting": "[2]; [5]", "value": 17}, {"measurement": "day on which a mean tumor volume of 200 mm^3 was observed", "setting": "[2]; cisplatin 5 mg/kg Q7D x 3 i.v. (group 2), days post-inoculation", "value": 49, "unit": "days"}, {"measurement": "tumor growth delay compared to untreated controls", "setting": "[2]; cisplatin 5 mg/kg i.v. (positive control)", "value": 4, "unit": "days"}]}
{"smiles": "O[C@H]([C@H](O)[C@@H](O)CBr)[C@H](O)CBr", "note": "[dibromodulcitol]", "values": [{"measurement": "absorption by the oral route", "setting": "[3]", "value": "rapid and fairly complete"}]}
{"smiles": "Cn1nnc2c(C(N)=O)ncn2c1=O", "note": "[temozolomide, reference compound]", "values": [{"measurement": "DLT", "setting": "[4]", "value": "Hematologic"}, {"measurement": "Nadir", "setting": "[4]", "value": "21 to 28", "unit": "days"}, {"measurement": "Recovery", "setting": "[4]", "value": "Within 14 days"}]}
